Data published in US11414387B2, “Oxoacridinyl acetic acid derivatives and methods of use” (Stingthera, Inc., priority 2017, dated 2022).

Experiments:
hSTING-WT = hSTING-WT (Homo sapiens (Human), UniProt Q86WV6, H232R); test: Radiometric filtration binding competition assay, hSTING-WT
mSTING-R232 = mSTING-R232 (Mus musculus, UniProt Q3TBT3); test: STING differential scanning fluorimetry (DSF) assay, mouse STING; settings: net shift in melting temperature
Protocol: (§1) A STING DSF assay was performed to determine protein thermostability shift in response to small molecule ligand binding. A STING thermostability shift assay based on differential scanning fluorimetry was used to measure (1) the net shift in melting temperature (ΔTm)between the apo and ligand-bound states of the STING protein and (2) the concentration of the thermal denaturation transition (EC50) as a surrogate measure of binding affinity (K). […] Protein in assay buffer was transferred to a 384 well plate and incubated with the hydrophobic fluorescent dye SYBR Orange. A temperature ramp was applied to the plate and the resulting dye fluorescence was plotted as a function of temperature. The first derivative of this function (dF/dT) was then used to extrapolate the melting temperature of the protein at various concentrations of compound and determine the thermal denaturation profile of a protein/compound complex.
(§2) • 1. Protein construct (affinity tag removal vs SUMO-fusion construct) • 2. Protein concentration • 3. Dye concentration • 4. Buffer • 5. Thermal ramp velocity • 6. DMSO tolerance • 7. Compound titration parameters • 8. […] 5 μM purified Target STING Protein • 3. 8 μM Sypro Orange Dye • 4. Buffer: 100 mM NaCl, 30 mM HEPES, pH 7.5 • 5. Thermal Ramp: 0.5° C./min • 6. <1% DMSO • 7. 11 point, 2 fold dilution, duplicate, 300 μM high concentrations • 8.

hSTING-R232 = hSTING-R232 (Homo sapiens (Human), UniProt Q86WV6, H232R); test: STING differential scanning fluorimetry (DSF) assay, WT human STING; settings: WT (R232) human STING aa140-379, net shift in melting temperature
hSTING-R232, sequence (Q86WV6 140-379 H232R): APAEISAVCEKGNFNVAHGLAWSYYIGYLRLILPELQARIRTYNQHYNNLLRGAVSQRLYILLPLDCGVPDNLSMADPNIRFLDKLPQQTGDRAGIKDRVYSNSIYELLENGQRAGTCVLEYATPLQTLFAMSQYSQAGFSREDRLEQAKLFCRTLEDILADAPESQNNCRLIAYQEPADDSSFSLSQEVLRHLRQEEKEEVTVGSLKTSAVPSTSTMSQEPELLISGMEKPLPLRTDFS

hSTING-HAQ [1] = target: T1, hSTING-HAQ (Homo sapiens (Human), UniProt Q86WV6, G230A/H232R/R293Q); test: STING differential scanning fluorimetry (DSF) assay, HAQ human STING; settings: HAQ human STING aa140-379, net shift in melting temperature
T1 sequence (Q86WV6 140-379 G230A/H232R/R293Q): as the sequence (Q86WV6 140-379 H232R) above, with G91A, R154Q counted along it
Protocol: as §1, §2

STING protein = STING protein (Homo sapiens (Human), UniProt Q86WV6, H232R); test: Cell based reporter assay of IRF activation (IRF-luciferase), THP1-dual-KI R232; settings: read-out: THP1-dual-KI R232_IRF(Luciferase)_Activity Maximum measured (%)
STING protein, sequence (Q86WV6 whole entry H232R): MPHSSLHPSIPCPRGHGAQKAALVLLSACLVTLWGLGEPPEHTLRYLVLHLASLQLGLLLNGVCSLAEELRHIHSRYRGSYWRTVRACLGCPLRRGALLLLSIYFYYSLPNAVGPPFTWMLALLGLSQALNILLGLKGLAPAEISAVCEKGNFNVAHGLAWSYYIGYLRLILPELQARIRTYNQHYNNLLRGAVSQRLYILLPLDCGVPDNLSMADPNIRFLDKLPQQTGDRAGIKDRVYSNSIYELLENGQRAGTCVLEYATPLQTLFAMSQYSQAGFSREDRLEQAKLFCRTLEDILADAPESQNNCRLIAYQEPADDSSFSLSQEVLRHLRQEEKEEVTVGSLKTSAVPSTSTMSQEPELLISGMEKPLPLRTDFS
Source text: Briefly, THP-1 monocytes were transfected and selected for stable integration of 2 reporter constructs. Clones incorporating stably integrated vectors were further selected by antibiotic resistance to blastocidin and zeocin. The reporter constructs included: (1) firefly luciferase reporter gene under the control of an ISG54 promoter fused to five interferon (IFN)-stimulated response elements to measure IRF transcription factor binding activity and (2) secreted embryonic alkaline phosphatase reporter gene under transcription control of an IFN-beta minimal promoter fused to 5 copies of the NFkB consensus transcriptional response element and 3 copies of the c-Rel binding site.
The resulting THP-1 cell line was further modified to incorporate 3 amino acid point mutations (H71R A230G Q293R). This modification of the native TMEM173 gene in THP-1 cells (HAQ) was designed to produce a cell reporter that expressed the most common allelic variant in the human population (THP-1 R232, available from InvivoGen). Alternatively, the TMEM173 gene was knocked out to provide a congenic control to counter-screen for compound activation that was independent of the STING protein (THP-1 STING KO).
Once cell lines were established, reporter assay protocols were developed and optimized to screen small molecule compounds for agonist activity. Assay optimization for efficacy and Z′ value included titration of the following parameters:
• 1. Cell pre-activation with PMA • 2. Cell seeding density • 3. DMSO tolerance • 4. Media selection • 5. FBS concentration • 6. Incubation time • 7. Co-Assessment of cell viability by CTG assay • 8. Appropriate HPE and ZPE controls • 9. Dose Response Titration Final Assay SOP Conditions • 1. No pre-activation with PMA • 2. 5×10^4 cells/well in 96 well plate format • 3. <0.5% DMSO • 4. […] 10% FBS • 6. 14-18 hr incubation • 7. Cell Titer Glo reagent (Promega) following supernatant removal • 8.

mSTING = mSTING (Mus musculus, UniProt Q3TBT3); test: Radiometric filtration binding competition assay, mSTING
hSTING-HAQ [2] = target: T1, hSTING-HAQ; test: Radiometric filtration binding competition assay, hSTING-HAQ
Protocol: A radiometric filtration binding competition assay was performed to quantify the binding affinity of compounds of the present application for the human or mouse STING protein, or associated HAQ human isoform. […] The resulting dose response was fit by non-linear regression to determine an IC50 value, from which a Ki value for each compound was extrapolated.
The resulting complexes were then filtered, dried, and scintillation fluid was added and the remaining radio signal was measured to determine the degree of compound ligand inhibition. This assay format was optimized for both the WT and HAQ isoforms of the human protein and the mouse orthologue protein.
Probe Concentration: Minimum concentration that achieved max assay window • g. Assay Format: Scintillation Proximity Bead or Filtration Binding Plate • h. […] Assay incubation times for successive incubation steps
WT-hSWAT: WT_FBA_HIS-SUMO-hSWAT IC50 (μM) (“WT”=Wild-type); HAQ-hSWAT: HAQ_FBA_HIS-SUMO-hSWAT IC50 (μM) (“HAQ”=human HAQ allele of STING protein); and WT-mSWAT: MOUSE_FBA_HIS-SUMO-mnSWAT IC50 (μM) which is the mouse isoform of STING protein.

hSTING-CTD = hSTING-CTD (Homo sapiens (Human), UniProt Q86WV6); test: Human STING protein FP competition concentration response assay; assay type: binding
hSTING-CTD, sequence (Q86WV6 135-379): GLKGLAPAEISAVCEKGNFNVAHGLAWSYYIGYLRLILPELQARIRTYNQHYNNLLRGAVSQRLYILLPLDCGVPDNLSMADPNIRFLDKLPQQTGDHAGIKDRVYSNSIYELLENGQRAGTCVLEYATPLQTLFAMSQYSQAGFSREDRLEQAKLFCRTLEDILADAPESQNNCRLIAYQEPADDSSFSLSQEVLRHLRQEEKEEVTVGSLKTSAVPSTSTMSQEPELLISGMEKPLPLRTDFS
Outline: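 Fluorescence polarization competition: recombinant hSTING-CTD (10 uM final) with 30 nM fluorescein-labeled c-di-GMP probe and titrated compound (2-fold, 14 points; 3.35% DMSO) in PBS, 10-20 min at r.t. Fluorescence anisotropy read; IC50 from 4-parameter logistic fit.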

mSTING-CTD = mSTING-CTD (Mus musculus (Mouse), UniProt Q3TBT3); test: Mouse STING protein FP competition concentration response assay; assay type: binding
mSTING-CTD, sequence (Q3TBT3 134-378): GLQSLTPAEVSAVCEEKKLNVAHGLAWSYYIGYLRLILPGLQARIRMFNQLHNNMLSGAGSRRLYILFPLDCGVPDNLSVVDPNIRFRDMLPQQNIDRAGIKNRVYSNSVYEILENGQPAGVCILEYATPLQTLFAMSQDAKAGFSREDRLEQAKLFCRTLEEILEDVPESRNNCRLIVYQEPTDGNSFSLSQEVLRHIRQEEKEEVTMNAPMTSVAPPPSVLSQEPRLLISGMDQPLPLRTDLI
Protocol: A validated STING ligand, such as c-di-GMP, which is labeled with a read-out signal (e.g., a fluorescence signal such as fluorescein), is mixed with STING-CTD (e.g., mouse STING-CTD or human STING-CTD) with or without the presence of a compound of the present application. Changes in the read-out signal are measured (e.g., by fluorescence anisotropy) to determine the binding of the compound to STING-CTD.
Fluorescein labeled c-di-GMP was mixed with mSTING-CTD with or without the presence of a compound of the present application in PBS in black 384-well plates (10 μL per well). The fluorescence anisotropy was determined on a PerkinElmer EnVisions multi-mode plate reader. The plate can be read immediately after mixing the reagents or after a few hours without change of signals.
• 1) 6×his-sumo-mSTING (Supplier: HDB) • 2) 2′-Fluo-AHC-c-di GMP (BIOLOG #F009) • 3) 23-cGAMP (BIOLOG #C161) • 4) DMXAA (InvivoGen #tlrl-dmx) • 5) DMSO (Sigma. #D5879-100 mL) • 6) 10×PBS(HDB #MCP-020) • 7) Assay plate, 384-well black plate, solid black bottom (Greiner #784076) • 8) Compound dilution intermediate plate, 384 LDV plate (Labcyte #LP-0200) • 9) Liquid handler, ECHO550 (Labcyte) • 10) Liquid handler, Bravo (Aglient) • 11) Reader, Envision (PerkinElmer) • 12) Centrifuge (Eppendorf) • 13) Multichannel Pipette (Raining) • 14) 10 ml Reservoir (Corning) • 15) 15 ml centrifuge tube (Corning) • 16) Adhesive Plate seals (BioRad) Compound Preparation • a) Containers of each compound were centrifuged at 1000 rpm for 5 min. • b) Compounds were dissolved in DMSO at 30 mM. • c) Compounds were sufficiently vortexed, and centrifuged at 1000 rpm for 1 min. • d) 16 uL of the compound solution was transferred into a LDV Compound Plate. • e) 2-fold serial dilutions of the compound solution were made with DMSO, and 14 concentrations were made in the 384-well LDV Compound Plate. • f) The LDV plate was spun at 1000 rpm for 60 sec and sealed with foil (stored at −20° C. if not used immediately). • g) 335 nL of each compound from the LDV Compound Plate was transferred to Assay Plate (ECHO550). Probe Preparation • a) 200 uM probe stock (2′-Fluo-AHC-c-diGMP) was diluted by dd2O to 6 uM working concentration. • b) 10-12 uL 6 uM working solution of probe was transferred into the LDV plate. • c) 50 nL per well 6 uM working solution of probe was transferred from the LDV plate to each well of the empty Assay Plate (Greiner 784076) by ECHO550 Buffer mode. • d) Probe final concentration was 30 nM when assay system was 10 uL. • e) The Assay Plate was spun at 1000 rpm for 1 min. Compound Addition • a) After the LDV Compound Plate was prepared, 100 nL compound (ECHO550 DMSO mode) was transferred from the LDV Compound Plate into the Assay Plate (Greiner 784076) containing 50 nL probe in each well according to the Assay Plate layout. • b) DMSO final concentration was 1% when assay system was 10 uL. • c) The Assay Plate was spun at 1000 rpm for 1 min. Protein Addition • a) Aliquot of 6×his-sumo-mSTING protein was thawed on ice, briefly to generate uniform solution. • b) 66 uM stock protein was diluted in 1×PBS assay buffer to generate 8 uM final solutions. • c) For test compound and ZPE wells, 10 μL per well of 8 uM protein solutions was added into the Assay Plate containing both the probe and test compounds or DMSO using multichannel pipette. • d) For HPE wells, 10 µL/well of 1×PBS assay buffer instead of protein was added into the Assay Plate containing both the probe and DMSO using multichannel pipette. • e) The Assay Plate was spun at 1000 rpm for 1 min. • f) The Assay Plate was incubated at r.t. for 10-20 min.
The EnVision plate reader was used to record the FA value of each well immediately after mixing the reagents or after a few hours without change of signals.
The raw data and calculated data (Fluorescence anisotropy (FA)) was exported from the EnVision reader. […]

hSTING-WT, sequence (Q86WV6 140-379 H232R): as the sequence (Q86WV6 140-379 H232R) above

Row | SMILES | IC50 (hSTING-WT) [µM] | MOUSE DSF_6xHIS-SUMO Tm Shift (° C.) (mSTING-R232) | WT_DSF_hSWAT Tm Shift (° C.) (hSTING-R232) | HAQ_DSF_hSWAT Tm Shift (° C.) (hSTING-HAQ [1]) | Emax (STING protein) [%] | IC50 (mSTING) [µM] | IC50 (hSTING-HAQ [2]) [µM] | IC50 (hSTING-CTD) [µM] | IC50 (mSTING-CTD) [µM]
1 | O=C(O)Cn1c2cc(-c3cccc(C(F)(F)F)c3)ccc2c(=O)c2ccc(Cl)c(Cl)c21 [Compound 161] | 20 to 100 | D (“D” > 15° C.) | B (“B” = 0-2° C.) | B (“B” = 0-2° C.) | < 5 | – | – | – | –
2 | O=C(O)Cn1c2cc(-c3ccc(O)cc3)ccc2c(=O)c2ccc(Cl)c(Cl)c21 [Compound 223] | 20 to 100 | – | C (“C” = 2-7° C,) | D (“D” > 7° C.) | < 5 | < 20 | 20 to 100 | – | –
3 | O=C(O)Cn1c2cc(Nc3cnccn3)ccc2c(=O)c2ccc(Cl)c(Cl)c21 [Compound 217] | 20 to 100 | – | D (“D” > 7° C.) | D (“D” > 7° C.) | > 50 | < 20 | 100 to 300 | – | –
4 | CSc1c(Cl)ccc2c(=O)c3ccc(C(C)(C)C)cc3n(CC(=O)O)c12 [Compound 215] | < 20 | – | D (“D” > 7° C.) | D (“D” > 7° C.) | > 50 | < 20 | < 20 | – | –
5 | O=C(O)Cn1c2cc(Nc3ccccc3)ccc2c(=O)c2ccc(Cl)c(Cl)c21 [Compound 181] | < 20 | D (“D” > 15° C.) | D (“D” > 7° C.) | – | > 50 | < 20 | 20 to 100 | – | –
6 | CC(C)c1ccc2c(=O)c3ccc(Cl)c(Br)c3n(CC(=O)NS(C)(=O)=O)c2c1 [Compound 350] | 100 to 300 | – | C (“C” = 2-7° C,) | C (“C” = 2-7° C,) | < 5 | – | – | – | –
7 | Cc1ccc(S(=O)(=O)NC(=O)Cn2c3cc(C(C)C)ccc3c(=O)c3ccc(Cl)c(Cl)c32)cc1 [Compound 351] | 20 to 100 | – | A (“A” < 0° C.) | A (“A” < 0° C.) | < 5 | – | – | – | –
8 | O=C(O)Cn1c2cc(C3CCCC3)ccc2c(=O)c2ccc(Cl)c(Cl)c21 [Compound 113] | 20 to 100 | D (“D” > 15° C.) | C (“C” = 2-7° C,) | C (“C” = 2-7° C,) | 5 to 25 | < 20 | – | – | –
9 | COc1c(Cl)ccc2c(=O)c3ccc(C4=CCCCC4)cc3n(CC(=O)O)c12 [Compound 219] | < 20 | – | D (“D” > 7° C.) | – | – | < 20 | 20 to 100 | – | –
10 | CC1(C)CCC(c2ccc3c(=O)c4ccc(Cl)c(Cl)c4n(CC(=O)O)c3c2)CC1 [Compound 160] | 20 to 100 | D (“D” > 15° C.) | B (“B” = 0-2° C.) | B (“B” = 0-2° C.) | 5 to 25 | – | – | – | –
11 | O=C(O)Cn1c2cc(-c3ccccc3)ccc2c(=O)c2ccc(Cl)c(Br)c21 [Compound 177] | 20 to 100 | – | C (“C” = 2-7° C,) | – | < 5 | 20 to 100 | 100 to 300 | – | –
12 | Cc1ccc(-c2ccc3c(=O)c4ccc(Cl)c(Cl)c4n(CC(=O)O)c3c2)cc1Cl [Compound 164] | 20 to 100 | D (“D” > 15° C.) | B (“B” = 0-2° C.) | B (“B” = 0-2° C.) | – | – | – | – | –
13 | CC(C)c1ccc2c(=O)c3ccc(Cl)c(C(F)(F)F)c3n(CC(=O)O)c2c1 [Compound 192] | 20 to 100 | B (“B” = 0-5° C.) | A (“A” < 0° C.) | – | < 5 | 100 to 300 | 20 to 100 | – | –
14 | O=C(O)Cn1c2cc(Nc3ccc(F)cc3F)ccc2c(=O)c2ccc(Cl)c(Cl)c21 [Compound 221] | < 20 | – | D (“D” > 7° C.) | D (“D” > 7° C.) | > 50 | – | 20 to 100 | – | –
15 | O=C(O)Cn1c2cc(Nc3ncccn3)ccc2c(=O)c2ccc(Cl)c(Cl)c21 [Compound 216] | 20 to 100 | D (“D” > 15° C.) | C (“C” = 2-7° C,) | – | > 50 | < 20 | 20 to 100 | – | –
16 | C#Cc1c(Cl)ccc2c(=O)c3ccccc3n(CC(=O)O)c12 [Compound 197] | > 300 | – | C (“C” = 2-7° C,) | – | < 5 | – | > 300 | – | –
17 | CC(C)(C)c1ccc2c(=O)c3ccc(Cl)c(Cl)c3n(CC(=O)O)c2c1 [Compound 47] | – | – | – | – | – | – | – | < 100 | 10 to 50
18 | O=C(O)Cn1c2cc(NC3CCCCC3)ccc2c(=O)c2ccc(Cl)c(Cl)c21 [Compound 59] | – | – | – | – | – | – | – | < 100 | 10 to 50
19 | Cc1c(C2=CCCCC2)ccc2c(=O)c3ccccc3n(CC(=O)O)c12 [Compound 28] | – | – | – | – | – | – | – | 500 to 1000 | 10 to 50
20 | CSc1c(Cl)ccc2c(=O)c3ccccc3n(CC(=O)O)c12 [Compound 212] | 100 to 300 | – | C (“C” = 2-7° C,) | – | – | 100 to 300 | > 300 | – | –
21 | Cc1ccc2c(=O)c3ccc(Cl)cc3n(CC(=O)O)c2c1 [Compound 17] | – | – | – | – | – | – | – | 500 to 1000 | 10 to 50
22 | O=C(O)Cn1c2ccccc2c(=O)c2ccc(Cl)c(Cl)c21 [Compound 13] | > 300 | C (“C” = 5-15° C.) | B (“B” = 0-2° C.) | – | – | > 300 | – | 100 to 500 | 10 to 50
23 | Cc1ccc2c(=O)c3ccc(C)cc3n(CC(=O)O)c2c1 [Compound 15] | – | – | – | – | – | – | – | > 1000 | 10 to 50
24 | CCc1ccc2c(=O)c3ccc(Cl)c(Cl)c3n(CC(=O)O)c2c1 [Compound 82] | – | – | – | – | – | – | – | 100 to 500 | 50 to 100
